Each structure is given as a SMILES string. Where two headings read alike, the source gives them in different places.

One series concerns the target T1, 5-HT2B receptor (Homo sapiens, UniProt P41595).
T1 construct: host or cells: HEK293 (stably transfected)
Description: FLIPR Ca2+ flux functional assay, antagonist activity at 5-HT2B. The settings on record: for 5-HT2B % Inh @ Max Dose: at max dose. The class given is cell-based. The method, then:
Key peripheral 5-HT2A receptors antagonists were tested for antagonist activity at several serotonin (5-HT) receptor subtypes (5-HT2A and 5-HT2B) using Ca^2+ flux functional assays, with the results summarized in Table 3. […] The ability to block peripheral 5-HT2B receptors in addition to 5-HT2A receptors is advantageous in the context of the present disclosure, as such blockade is likely to mitigate the potential cardiac valvulopathy induced by 5-HT2B receptor agonists. This is expected to be a potential side effect of many classical psychedelics, which activate 5-HT2B receptors as a secondary target. Accordingly, xylamidine and BW501C67 are preferred over Compound 14a for use in combination with 5-HT2A receptor agonists that also activate 5-HT2B receptors, since they also block this important off target. When taken together with the binding data presented above, xylamidine and BW501C67 appear to be potent pan-antagonists for 5-HT2-type receptors, whereas Compound 14a is selective for 5-HT2A receptors specifically.
Functional Assays at 5-HT2A and 5-HT2B. Antagonist activity at 5-HT2A and 5-HT2B receptors was determined using a FLIPR Ca^2+ flux assay at WuXi AppTec (Hong Kong) Limited according to their standard protocols. Briefly, stably transfected HEK293 cells expressing the receptor of interest were grown and plated in a 384 well plate and incubated at 37° C. and 5% CO2 overnight. This was combined with a fluorescent dye (Fluo-4 Direct™) to make a final assay concentration of 2.5 mM. Compounds were diluted 1:3.16 for 10 points and 750 nL was added to a 384 well compound plate using ECHO along with 30 μL assay buffer. The fluorescent dye was then added to the assay plate along with assay buffer to a final volume of 40 μL. The cell plate was incubated for 50 min at 37° C. and 5% CO2 and placed into the FLIPR Tetra along with the compound plate. 10 μL of references and compounds were then transferred from the compound plate into the cell plate and the fluorescent signal was read. Next, 10 μL of a 6× solution of 5-carboxamidotryptamine (5-CT) at the calculated EC80 was added and the fluorescent signal read again. Finally, the Max-Min signal was calculated for the runs with and without agonist.
On the technique in general: Calcium flux is commonly read through the fluorescence of an indicator in the cells.

The subject of series [1] is DOPR-induced head twitch response (HTR). Description: Blockade of DOPR-induced head twitch response (HTR) in rats. In kind it is in vivo, Sprague-Dawley rats. The conditions noted are these: for Attenuation of the HTR to DOPR (significance vs. vehicle): all doses tested, SC, Dunnett's multiple comparison test; for Mean HTR (SEM): 10 min before DOPR 0.32 mg/kg SC, HTRs counted for 20 min. As for the experimental part:
FIG. 1 graphically depicts in a bar graph the effect of xylamidine pre-treatment on the HTR induced by DOPR in the rat. The indicated doses of xylamidine or vehicle were administered SC. followed 10 minutes later by DOPR (0.32 mg/kg, SC), and HTRs were counted for 20 minutes immediately after DOPR administration (10-30 min after administration of xylamidine). […] In FIG. 2, the effect of BW501C67 pre-treatment on the HTR induced by DOPR in the rat is depicted graphically in a bar graph. […] FIG. 4 graphically depicts in a bar graph the effect of sarpogrelate pre-treatment on the HTR induced by DOPR in the rat.
Animals. Adult male Sprague-Dawley rats aged 8 weeks (body weight ˜270 g) were used in these experiments. Animals were pair housed under controlled temperatures and 12-hour light/dark cycles (lights on between 07:00-19:00 h), with ad libitum food and water. The protocol was approved by the Eurofins Advinus Institutional Animal Care and Use Committee. This study was carried out in strict accordance with the recommendations in the Guide for the Care and Use of Laboratory Animals of the National Institutes of Health. All efforts were made to minimize suffering.
Drugs and Drug Administration. Test compounds were prepared as described above or commercially obtained. Drugs were dissolved in their respective vehicle solutions (see Table 4) and administered subcutaneously (SC) in a volume of 5 mL/kg (except for the experiment with sarpogrelate, where a volume of […] was used). […] The 5-HT2A receptor agonist DOPR was then administered at 1 dose (0.32 mg/kg, SC, in saline, calculated based on the free base) to all animals 10 min after pretreatment with the test peripheral antagonist or vehicle.
Procedure. Rats were administered one dose (0.01 to 100 mg/kg, SC, as indicated) of a test peripheral antagonist (or vehicle) 10 mins prior to administration of DOPR (0.32 mg/kg, SC). After administration of DOPR, rats were immediately placed into a small open field for behavioral observation.
Statistical analysis. The data points shown in Table 4 are the mean±standard error of the mean (SEM). Statistical comparisons were performed between each peripheral antagonist treatment group and its respective vehicle treatment group using Dunnett's multiple comparison test. Analysis was performed using GraphPad Prism 6.

The conditions of series [2]: 37° C. As for the experimental part:
Method 1. Pooled frozen rat brain homogenate was thawed in a water bath at 37° C. prior to the experiment. Using an Apricot automation workstation, 98 μL/well of blank brain homogenate or 100 mM PBS were added to all 96-well reaction plates (Blank, T0, T10, T30, T60, and T120). […] All reaction plates containing mixtures of compound and brain homogenate were incubated at 37° C. in a water bath for up to 120 minutes. At the end of incubation, 500 uL of stop solution (200 ng/mL tolbutamide and 200 ng/mL labetalol in ACN) was added to precipitate protein and mixed thoroughly for 20 minutes at 4° C. After centrifugation at 4,000 rpm and 4° C. for 20 minutes, an Apricot automation workstation was used to transfer 150 μL of supernatant from each reaction plate to its corresponding bioanaylsis plate, which was shaken for 10 minutes prior to LC-MS/MS analysis.
Method 2. Rat brain tissue homogenate samples were prepared by diluting one volume of whole rat brain tissue with two volumes of dialysis buffer (phosphate buffered saline pH 7.4-0.1 M sodium phosphate and 0.15 M sodium chloride) to yield 3 times diluted homogenate. Test compounds were spiked into 400 μL aliquots (n=3) of rat brain homogenate and the resulting mixtures were incubated at 37° C. […] An aliquot (100 μL) of each sample was transferred to a 96-well deep plate and analyzed by LC-MS/MS.

The nature of a further series: in vivo. The class given is in vivo, rat. The conditions noted are these: for Peripheral restriction / brain penetration: from free brain:free plasma ratios; for Kp at 0.167 h / Kp at 0.5 h: male, Sprague Dawley, rat, in vivo; for Kp at 0.167 h: read-out: Free Brain:Free Plasma (0.167 h); for Kp at 0.5 h: read-out: Free Brain:Free Plasma (0.5 h). As for the experimental part: The ratio of free brain concentration to free plasma concentration was calculated at 0.167 h and 0.5 h post administration for each compound using the data presented in the above examples and the following formula.
A smaller value for the free brain: free plasma ratio indicates greater peripheral restriction and therefore, better suitability for the methods of the present disclosure.

[3] abbreviates: antagonist activity, Ca2+ flux, HEK293 cells, agonist at EC80.
Setting [4] is: antagonist activity, Ca2+ flux, HEK293 cells, agonist at EC80, read-out: 5-HT2B IC50.
Setting [5] is: calculated using 10 mg/kg PK data.
Setting [6] is: Method 2: 3 times diluted homogenate.

T1 sequence (P41595 whole entry): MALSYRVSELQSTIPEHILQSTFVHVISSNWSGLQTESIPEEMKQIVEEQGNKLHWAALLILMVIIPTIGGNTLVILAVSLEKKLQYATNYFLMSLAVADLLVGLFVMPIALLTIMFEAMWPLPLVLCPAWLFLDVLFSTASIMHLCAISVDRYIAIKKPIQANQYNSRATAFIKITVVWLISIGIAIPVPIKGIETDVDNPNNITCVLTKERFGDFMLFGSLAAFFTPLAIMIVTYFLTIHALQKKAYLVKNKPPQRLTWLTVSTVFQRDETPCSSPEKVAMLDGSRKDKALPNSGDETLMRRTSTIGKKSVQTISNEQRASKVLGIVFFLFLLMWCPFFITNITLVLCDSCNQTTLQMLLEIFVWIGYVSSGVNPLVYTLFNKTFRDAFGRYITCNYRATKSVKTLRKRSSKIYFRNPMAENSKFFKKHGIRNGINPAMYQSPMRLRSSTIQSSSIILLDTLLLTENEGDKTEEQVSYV

Consider `CC(CNC(=N)CNc1ccccc1)Oc1cccc(Cl)c1.O=CO` (centres unmarked) [BW501C67, N-(2-(3-chlorophenoxy)propyl)-2-(phenylamino)acetimidamide formate], for which the half-maximal inhibitory concentration (IC50) (in general, the concentration at which inhibition is half-maximal) on 5-HT2B receptor worked out at 21.6 nM. Besides, the “5-HT2B IC50 (nM)” value on 5-HT2B receptor (setting [3]) is on record as “high potency antagonism”. Besides, the “5-HT2B % Inh @ Max Dose” value on 5-HT2B receptor (antagonist activity, Ca2+ flux) was found to be 99.74%. Besides, in series [1], the “Attenuation of the HTR to DOPR (significance vs. vehicle)” value is “not statistically significant”. In addition, the “Mean HTR (SEM)” value is recorded as 5.83 in series [1] (antagonist 0.01 mg/kg SC), 2.67 in series [1] (antagonist 0.1 mg/kg SC), 5.33 in series [1] (antagonist 1 mg/kg SC) and 4.33 in series [1] (antagonist 10 mg/kg SC). Besides, the “% Remaining (120 minutes), rat brain homogenate” value (“% Remaining (120 minutes)” for short) in series [2] (Method 1: 1 μM) was 110.8%. Moreover, the “Peripheral restriction / brain penetration” value in the series “in vivo” was “by far the most peripherally restricted compound”. For the same compound, the Kp at 0.167 h in the series “in vivo” (calculated using 1 mg/kg data) was 0.0032. For the same compound, in “in vivo” (calculated using 1 mg/kg data), the Kp at 0.5 h is 0.0052.

In the case of `CC(C)COc1ccc(CNC(=O)N(Cc2ccc(F)cc2)C2CCN(C(=O)CC[C@H](N)C(=O)O)CC2)cc1` [Compound 14a, (S)-2-amino-5-(4-(1-(4-fluorobenzyl)-3-(4-isobutoxybenzyl)ureido)piperidin-1-yl)-5-oxopentanoic acid], the IC50 on 5-HT2B receptor (setting [4]) was more than 10000 nM. Further, the “5-HT2B % Inh @ Max Dose” value at 5-HT2B receptor (antagonist activity, Ca2+ flux) is listed as −12.17%. Further, the “Attenuation of the HTR to DOPR (significance vs. vehicle)” value in series [1] was “statistically significant attenuation of the HTR”. For the same compound, the “Mean HTR (SEM)” value was found to be 2.50 in series [1] (antagonist 0.01 mg/kg SC), 2.00 in series [1] (antagonist 0.1 mg/kg SC), 2.17 in series [1] (antagonist 1 mg/kg SC) and 1.83 in series [1] (antagonist 10 mg/kg SC). In “in vivo”, the “Peripheral restriction / brain penetration” value is listed as “good peripheral restriction”. Also, the results for the Kp at 0.167 h in “in vivo” (calculated using 1 mg/kg data) and in the series “in vivo” (setting [5]) were 0 and 0.048, respectively. The Kp at 0.5 h in “in vivo” (calculated using 1 mg/kg data) was 0; in “in vivo” (setting [5]), 0.035.

As for `COc1cccc(CCc2ccccc2OCC(CN(C)C)OC(=O)CCC(=O)O)c1` (centres unmarked) [sarpogrelate], in series [1], the “Attenuation of the HTR to DOPR (significance vs. vehicle)” value was “statistically significant attenuation of the HTR”. Further, the “Mean HTR (SEM)” value worked out at 2.33 in series [1] (antagonist 1 mg/kg SC); 1.83 in series [1] (antagonist 3 mg/kg SC); 1.33 in series [1] (antagonist 10 mg/kg SC); 1.33 in series [1] (antagonist 30 mg/kg SC); 0.33 in series [1] (antagonist 100 mg/kg SC). In addition, in “in vivo”, the “Peripheral restriction / brain penetration” value is “substantial brain penetration”. Moreover, the Kp at 0.167 h in “in vivo” (setting [5]) is 0.37. Also, the Kp at 0.5 h in the series “in vivo” (setting [5]) was 0.29.

For `COc1cccc(C(=O)Nc2ccc(OCCN3CCOCC3)c(-c3ccnn3C)c2)c1` [temanogrel], the “% Remaining (120 minutes)” value in series [2] (setting [6]) is 101%. Also, the “Peripheral restriction / brain penetration” value in “in vivo” was “substantial brain penetration”. Also, in the series “in vivo” (setting [5]), the Kp at 0.167 h is 0.33 and the Kp at 0.5 h was 0.34.

With `COc1cccc(OC(C)CNC(=N)Cc2cccc(C)c2)c1.O=C(O)C(F)(F)F` (centres unmarked) [xylamidine, N-(2-(3-methoxyphenoxy)propyl)-2-(m-tolyl) acetimidamide trifluoroacetate], the “5-HT2B IC50 (nM)” value at 5-HT2B receptor (setting [3]) is “high potency antagonism”. Further, the IC50 at 5-HT2B receptor (setting [4]) is 13.3 nM. Moreover, the “5-HT2B % Inh @ Max Dose” value at 5-HT2B receptor (antagonist activity, Ca2+ flux) is listed as 99.68%. In series [1], the “Attenuation of the HTR to DOPR (significance vs. vehicle)” value was “not statistically significant”. The “Mean HTR (SEM)” value in series [1] (antagonist 0.01 mg/kg SC) was determined as 7.33; in series [1] (antagonist 0.1 mg/kg SC), 5.00; in series [1] (antagonist 1 mg/kg SC) it was 3.17; in series [1] (antagonist 10 mg/kg SC), 2.83. For the same compound, the “% Remaining (120 minutes)” value in series [2] (setting [6]) was determined as 100%. Besides, the “Free Brain:Free Plasma (0.167 h)” value in “in vivo” (calculated using 1 mg/kg data) and in the series “in vivo” (setting [5]) was 0.018 throughout. Moreover, the “Free Brain:Free Plasma (0.5 h)” value in the series “in vivo” (calculated using 1 mg/kg data) is reported as 0.052; in the series “in vivo” (setting [5]) it was 0.018.

The values are drawn from patent US20240390301A1, “COMBINATIONS OF PERIPHERAL 5-HT2A RECEPTOR ANTAGONISTS AND CENTRAL 5-HT2A RECEPTOR AGONISTS” (priority 2021, published 2024).
